Reference: the NIST ThermoML archive (doi:10.1016/j.jct.2005.06.003)
Numbers after ± are expanded uncertainties.

Conditions: Liquid, Closed cell (Static) method

## ClC(Cl)C(Cl)Cl [1,1,2,2-tetrachloroethane]
283.15 K
  vapor or sublimation pressure: 0.263 ± 0.02 kPa
288.15 K
  vapor or sublimation pressure: 0.373 ± 0.02 kPa
293.15 K
  vapor or sublimation pressure: 0.521 ± 0.021 kPa
298.15 K
  vapor or sublimation pressure: 0.711 ± 0.021 kPa
303.15 K
  vapor or sublimation pressure: 0.98 ± 0.022 kPa
308.15 K
  vapor or sublimation pressure: 1.289 ± 0.022 kPa
313.15 K
  vapor or sublimation pressure: 1.701 ± 0.022 kPa
318.15 K
  vapor or sublimation pressure: 2.236 ± 0.023 kPa
323.15 K
  vapor or sublimation pressure: 2.86 ± 0.023 kPa

## ClC(Cl)=C(Cl)Cl [tetrachloroethene]
283.15 K
  vapor or sublimation pressure: 1.023 ± 0.022 kPa
288.15 K
  vapor or sublimation pressure: 1.4 ± 0.022 kPa
293.15 K
  vapor or sublimation pressure: 1.861 ± 0.022 kPa
298.15 K
  vapor or sublimation pressure: 2.462 ± 0.023 kPa
303.15 K
  vapor or sublimation pressure: 3.205 ± 0.023 kPa
308.15 K
  vapor or sublimation pressure: 4.117 ± 0.024 kPa
313.15 K
  vapor or sublimation pressure: 5.253 ± 0.025 kPa
318.15 K
  vapor or sublimation pressure: 6.621 ± 0.027 kPa
323.15 K
  vapor or sublimation pressure: 8.286 ± 0.028 kPa

## C1CCOC1 [tetrahydrofuran]
283.15 K
  vapor or sublimation pressure: 10.73 ± 0.032 kPa
288.15 K
  vapor or sublimation pressure: 13.67 ± 0.036 kPa
293.15 K
  vapor or sublimation pressure: 17.25 ± 0.041 kPa
298.15 K
  vapor or sublimation pressure: 21.6 ± 0.047 kPa
303.15 K
  vapor or sublimation pressure: 26.81 ± 0.054 kPa
308.15 K
  vapor or sublimation pressure: 32.94 ± 0.065 kPa
313.15 K
  vapor or sublimation pressure: 40.21 ± 0.077 kPa
318.15 K
  vapor or sublimation pressure: 48.68 ± 0.091 kPa
323.15 K
  vapor or sublimation pressure: 58.54 ± 0.11 kPa
